We go through seven compounds from US10912780B2, “Heterocyclic compounds useful as anti-bacterial agents and method for production thereof” (Bugworks Research, Inc., priority 2017, dated 2021).

SMILES strings stand for the structures. In brackets after ≈: the same amount, converted by molar mass. Several values for one entry are separate records, joined by “and”; a condition that tells them apart may be missing. Equal values may be shown once. A value given as a limit tells only on which side of the number the result lay.

The subject of test [1] is Enterococcus faecalis ATCC 29212. Nature of the test: Minimum Inhibitory Concentration (MIC) in LB media. Format: cell-based. Particulars: Enterococcus faecalis, ATCC29212, read-out: Minimum Inhibitory Concentration E. faecalis ATCC 29212. The text has this: (§1) The compounds of Formula (I) are of interest due to their potent antibacterial effects. The ability of the invention compounds disclosed herein to achieve an antibacterial effect may be evaluated with regard to their ability to inhibit the growth of bacterial species like Escherichia coli ATCC 25922, Staphylococcus aureus ATCC 29213, Klebsiella pneumoniae ATCC 13883, Acinetobacter baumannii ATCC 19606, Pseudomonas aeruginosa ATCC 27853, Enterococcus faecalis ATCC 29212 and Enterococcus faecalis ATCC 29212 using an assay based on the following Minimum Inhibitory Concentration (MIC) protocol:
(§2) The medium sterility is checked by incubating at 37° C. for a period of 48 h.
(§3) Bacterial cultures that are stored as glycerol stocks at −80° C. are sub cultured on LB agar plates to obtain isolated colonies. A single colony of each strain is cultured in LB broth. The cultures are incubated at 37 C, 200 rpm till they reach an optical density (OD at 600 nm) of 0.8 to 1. […] Test compounds are dissolved in dimethyl sulfoxide (DMSO) to a stock concentration of 4 mg/ml. A twofold dilution series of this DMSO stock is prepared in a 96 well V bottom microtitre plate from rows A to H. A 3 μL volume of these dilutions are transferred to a 96-well flat bottom microtitre assay plate. Controls to monitor the effects of DMSO and media sterility are included. Each well is inoculated with 150 μL of the above diluted culture. The plates are incubated at 37° C. overnight in a humidified incubator. The following morning, the plates are read using a Spectrophotometer at 600 nm wavelength. […] The antibacterial activity (MIC) determined against representative Gram positive (S. aureus, E. faecalis) and Gram negative (E.coli, -P. aeruginosa and A. baumannii) pathogen were reported Table 1.

The subject of test [2] is Escherichia coli ATCC 25922. Description: Minimum Inhibitory Concentration (MIC) in LB media. Format: cell-based. The following applies: Escherichia coli, ATCC25922, read-out: Minimum Inhibitory Concentration E. coli ATCC 25922.
Source text: as §1, §2, §3

For test [3], the system named is Klebsiella pneumoniae ATCC 13883. Nature of the test: Minimum Inhibitory Concentration (MIC) in LB media. It is filed as cell-based. The following applies: Klebsiella pneumoniae, ATCC13883, read-out: Minimum Inhibitory Concentration K. pneumoniae ATCC 13883.
Source text: as §1, §2, §3

Test [4] relates to Pseudomonas aeruginosa ATCC 27853. Description: Minimum Inhibitory Concentration (MIC) in LB media. Format: cell-based. Particulars: Pseudomonas aeruginosa, ATCC27853, read-out: Minimum Inhibitory Concentration P. aeruginosa ATCC 27853.
Source text: as §1, §2, §3

Test [5] deals with Staphylococcus aureus ATCC 29213. Nature of the test: Minimum Inhibitory Concentration (MIC) in LB media. It is filed as cell-based. The following applies: Staphylococcus aureus, ATCC29213, read-out: Minimum Inhibitory Concentration S. aureus ATCC 29213.
Source text: as §1, §2, §3

The subject of test [6] is K. pneumoniae [ATCC13883]. Nature of the test: Neutropenic thigh infection model in rat. It is filed as in vivo. Particulars: 10 mg/kg, i.v. bolus, neutropenic rat.
Test [7] relates to Acinetobacter baumannii ATCC 19606. Description: Minimum Inhibitory Concentration (MIC) in LB media. It is filed as cell-based. Particulars: Acinetobacter baumannii, ATCC19606.
The target in the next test is E. coli DNA gyrase (Escherichia coli, UniProt P0AES4+P0AES6). Nature of the test: biochemical. The following applies: supercoiling assay.
Sequence of E. coli DNA gyrase (P0AES4 whole entry, one chain of several): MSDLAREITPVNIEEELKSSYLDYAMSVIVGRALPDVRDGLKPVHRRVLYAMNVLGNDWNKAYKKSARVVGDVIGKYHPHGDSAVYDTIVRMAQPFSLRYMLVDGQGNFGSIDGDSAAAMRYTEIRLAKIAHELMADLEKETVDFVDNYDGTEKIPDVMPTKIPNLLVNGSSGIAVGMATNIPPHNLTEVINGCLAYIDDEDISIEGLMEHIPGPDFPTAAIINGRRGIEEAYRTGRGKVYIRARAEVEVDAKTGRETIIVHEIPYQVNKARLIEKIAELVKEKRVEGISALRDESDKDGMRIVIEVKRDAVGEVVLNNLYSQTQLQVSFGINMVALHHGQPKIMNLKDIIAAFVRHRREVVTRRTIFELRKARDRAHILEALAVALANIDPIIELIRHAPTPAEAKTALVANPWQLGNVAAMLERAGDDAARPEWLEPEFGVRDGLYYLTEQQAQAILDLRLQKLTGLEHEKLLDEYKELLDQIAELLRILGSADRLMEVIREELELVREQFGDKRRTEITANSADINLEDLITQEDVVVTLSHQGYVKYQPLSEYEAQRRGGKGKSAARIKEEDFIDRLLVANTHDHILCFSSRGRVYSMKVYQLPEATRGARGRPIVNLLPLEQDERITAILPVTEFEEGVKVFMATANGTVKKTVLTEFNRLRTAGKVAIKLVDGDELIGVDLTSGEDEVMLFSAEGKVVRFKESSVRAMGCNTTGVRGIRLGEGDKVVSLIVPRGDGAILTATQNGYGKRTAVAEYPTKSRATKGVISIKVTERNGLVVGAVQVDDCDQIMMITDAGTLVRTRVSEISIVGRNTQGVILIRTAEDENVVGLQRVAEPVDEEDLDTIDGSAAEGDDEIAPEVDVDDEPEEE
For a further test, the target named is E. coli topoisomerase IV (Escherichia coli, UniProt P0AFI2+P20083). Nature of the test: biochemical. The following applies: decatenation assay; read-out: E. coli Topo IV IC50.
Sequence of E. coli topoisomerase IV (P20083 whole entry): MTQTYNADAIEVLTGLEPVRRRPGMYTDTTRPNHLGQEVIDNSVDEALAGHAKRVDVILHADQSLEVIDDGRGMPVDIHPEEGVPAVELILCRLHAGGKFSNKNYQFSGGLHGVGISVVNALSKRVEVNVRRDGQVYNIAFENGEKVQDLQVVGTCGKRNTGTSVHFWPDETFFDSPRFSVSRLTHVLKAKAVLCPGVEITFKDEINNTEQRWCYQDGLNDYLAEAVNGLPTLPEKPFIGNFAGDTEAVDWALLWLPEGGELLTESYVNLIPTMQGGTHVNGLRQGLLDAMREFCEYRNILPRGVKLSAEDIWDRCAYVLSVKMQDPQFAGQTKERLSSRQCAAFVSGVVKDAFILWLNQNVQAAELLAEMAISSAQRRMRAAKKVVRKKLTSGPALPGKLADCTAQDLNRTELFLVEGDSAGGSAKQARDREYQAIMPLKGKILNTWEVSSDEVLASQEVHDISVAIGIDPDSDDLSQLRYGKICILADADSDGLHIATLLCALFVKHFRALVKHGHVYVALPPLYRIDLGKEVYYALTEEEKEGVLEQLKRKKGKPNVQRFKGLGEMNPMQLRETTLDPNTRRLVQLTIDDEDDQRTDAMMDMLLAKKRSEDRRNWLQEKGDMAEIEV
Sequence of E. coli topoisomerase IV (P0AFI2 whole entry): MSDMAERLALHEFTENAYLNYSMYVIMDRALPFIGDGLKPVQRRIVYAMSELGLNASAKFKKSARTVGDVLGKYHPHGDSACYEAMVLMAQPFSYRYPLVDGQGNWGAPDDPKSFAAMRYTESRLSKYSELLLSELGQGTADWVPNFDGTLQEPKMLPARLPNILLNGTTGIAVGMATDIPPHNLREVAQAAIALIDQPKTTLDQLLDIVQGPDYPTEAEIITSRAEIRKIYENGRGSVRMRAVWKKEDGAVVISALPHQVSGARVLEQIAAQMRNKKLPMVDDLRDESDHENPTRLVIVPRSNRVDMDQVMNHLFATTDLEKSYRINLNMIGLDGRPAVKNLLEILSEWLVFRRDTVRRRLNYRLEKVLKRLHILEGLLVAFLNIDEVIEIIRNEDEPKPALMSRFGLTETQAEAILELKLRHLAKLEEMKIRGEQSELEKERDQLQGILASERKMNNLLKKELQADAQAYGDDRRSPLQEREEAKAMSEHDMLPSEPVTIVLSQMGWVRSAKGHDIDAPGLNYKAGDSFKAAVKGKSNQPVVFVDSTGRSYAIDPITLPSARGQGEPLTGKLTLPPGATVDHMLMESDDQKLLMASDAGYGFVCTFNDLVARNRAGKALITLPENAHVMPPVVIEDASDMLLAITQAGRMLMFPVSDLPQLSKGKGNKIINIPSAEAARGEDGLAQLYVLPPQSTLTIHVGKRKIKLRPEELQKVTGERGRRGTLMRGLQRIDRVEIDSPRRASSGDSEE
Test [8] has as its target T1, human ether a go-go related gene (hERG) K+ channel (Homo sapiens, UniProt Q12809).
T1 construct: Chinese Hamster Ovary cell line stably expressing the full-length hERG potassium channel; expressed in transfected cells
Description: hERG inhibition assay, QPatch HTX automated electrophysiology. The following applies: CHO cell line stably expressing hERG, whole-cell patch clamp, maximum test concentration 300 μM. It is filed as cell-based. (In general: Block of hERG is tested as a sign of cardiac risk.)
Description: The compounds were tested for inhibition of the human ether a go-go related gene (hERG) K+ channel using QPatch HTX automated electrophysiology.
Compounds were solubilised to 100 mM in DMSO before dilution in HBPS to 300 μM.
Electrophysiological recordings were made from a Chinese Hamster Ovary cell line stably expressing the full-length hERG potassium channel. Single cell ionic currents were measured in whole-cell patch clamp configuration at room temperature (21-23° C.) using the QPatch HTX platform (Sophion). Intracellular solution contained (mM): 120 KF, 20 KCl, 10 EGTA, 10 HEPES and was buffered to pH 7.3. […] Cells were clamped at a holding potential of −80 mV. […] This sweep was repeated 10 times at 10 s intervals. hERG currents were measured from the tail step and referenced to the holding current. Compounds were then incubated for 2 minutes prior to a second measurement of ion channel current using an identical pulse train.

T1 sequence (Q12809 whole entry): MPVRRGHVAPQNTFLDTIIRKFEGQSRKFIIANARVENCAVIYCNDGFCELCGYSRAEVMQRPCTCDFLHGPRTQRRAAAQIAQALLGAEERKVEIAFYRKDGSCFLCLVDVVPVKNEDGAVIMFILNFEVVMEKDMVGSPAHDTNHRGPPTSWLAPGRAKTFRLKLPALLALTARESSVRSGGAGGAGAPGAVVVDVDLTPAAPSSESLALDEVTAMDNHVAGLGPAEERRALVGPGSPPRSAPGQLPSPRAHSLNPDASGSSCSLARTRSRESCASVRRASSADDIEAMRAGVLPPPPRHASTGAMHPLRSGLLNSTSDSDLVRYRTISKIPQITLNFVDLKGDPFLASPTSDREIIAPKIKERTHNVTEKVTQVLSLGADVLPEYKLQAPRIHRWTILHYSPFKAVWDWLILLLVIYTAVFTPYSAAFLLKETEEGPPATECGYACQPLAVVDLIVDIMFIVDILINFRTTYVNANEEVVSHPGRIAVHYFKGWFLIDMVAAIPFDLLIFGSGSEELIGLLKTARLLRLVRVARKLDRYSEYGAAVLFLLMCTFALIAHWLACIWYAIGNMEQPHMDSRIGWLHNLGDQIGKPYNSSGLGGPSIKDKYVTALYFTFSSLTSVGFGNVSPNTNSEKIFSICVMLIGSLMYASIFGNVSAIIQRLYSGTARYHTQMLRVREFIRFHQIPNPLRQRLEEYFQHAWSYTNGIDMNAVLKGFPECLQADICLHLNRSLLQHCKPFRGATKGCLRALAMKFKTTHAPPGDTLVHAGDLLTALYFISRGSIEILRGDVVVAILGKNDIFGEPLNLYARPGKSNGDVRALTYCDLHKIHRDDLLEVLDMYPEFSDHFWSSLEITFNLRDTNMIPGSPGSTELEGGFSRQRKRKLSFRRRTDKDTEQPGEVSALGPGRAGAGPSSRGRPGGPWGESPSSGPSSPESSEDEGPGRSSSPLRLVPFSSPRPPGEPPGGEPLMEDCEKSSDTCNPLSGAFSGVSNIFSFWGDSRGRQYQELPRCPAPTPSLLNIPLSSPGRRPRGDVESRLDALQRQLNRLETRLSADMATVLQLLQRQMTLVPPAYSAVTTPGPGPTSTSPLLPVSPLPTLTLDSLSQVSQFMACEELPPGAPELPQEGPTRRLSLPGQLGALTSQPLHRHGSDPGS

In the case of `O=C(O)c1cn(C2CC2)c2cc(N3CCNCC3)c(F)cc2c1=O` [Ciprofloxacin, reference compound], the MIC in test [1] is 0.4 µg/mL (≈ 1.21 µM); in test [2], 0.012 µg/mL (≈ 0.0362 µM); in test [3], 0.05 µg/mL (≈ 0.151 µM); in test [4] it was 0.1 µg/mL (≈ 0.302 µM); in test [5] it was 0.4 µg/mL (≈ 1.21 µM). Also, the “MEAN ± SD (Log 10 CFU/g thigh)” value in test [6] (10 hr post infection) turned out to be 3.28 ± 0.19 Log 10 CFU/g thigh. Moreover, in test [6] (10 hr post infection), the “Mean Log10CFU/g thigh reduction (wrt 2 h PI control: 4.72 Log10CFU/g thigh)” value turned out to be 1.44 Log10CFU/g thigh. Also, in test [6] (individual animals, thigh harvested 10 hr post infection), the “Log 10 CFU/g thigh” value was 3.49 Log 10 CFU/g thigh and 3.11 Log 10 CFU/g thigh and 3.25 Log 10 CFU/g thigh.
In general, IC50 refers to the concentration needed to halve the response being measured. With `Cn1c(=O)ccc2ccc(F)c(CCNCC[C@H]3CN(c4cnc5c(n4)NC(=O)CO5)C(=O)O3)c21` (single isomer, unassigned) [Example 24], the MIC is 0.125 µg/mL (≈ 0.259 µM) in test [1]; 0.06 µg/mL (≈ 0.124 µM) in test [2]; 0.125 µg/mL (≈ 0.259 µM) in test [3]; 0.25 µg/mL (≈ 0.518 µM) in [4]; 0.125 µg/mL (≈ 0.259 µM) in test [5]; 0.5 µg/mL (≈ 1.04 µM) in test [7]. In addition, the values for the IC50 (against E. coli DNA gyrase; at E. coli topoisomerase IV; in test [8]) were 25 nM, 123 nM and greater than 300000 nM, respectively.
Regarding `O=C1COc2ccc(N3C[C@H](CNCCc4c(F)ccc5ncc(=O)n(CCO)c45)OC3=O)nc2N1` [Example 9, (S)-6-(5-(((2-(6-fluoro-4-(2-hydroxyethyl)-3-oxo-3,4-dihydroquinoxalin-5-yl)ethyl)amino)methyl)-2-oxooxazolidin-3-yl)-2H-pyrido[3,2-b][1,4]oxazin-3(4H)-one], the MIC in test [1] was 0.125 µg/mL (≈ 0.251 µM); in [2], 0.06 µg/mL (≈ 0.12 µM); in test [3], 0.13 µg/mL (≈ 0.261 µM); in test [4] it was 1 µg/mL (≈ 2.01 µM); in test [5] it was 0.03 µg/mL (≈ 0.0602 µM); in test [7], 0.06 µg/mL (≈ 0.12 µM). The IC50 at E. coli DNA gyrase is 3.2 nM; at E. coli topoisomerase IV, 175 nM; in [8] it was 68700 nM.
In the case of `O=C1COc2ncc(N3C[C@H](CNCCc4c(F)ccc5ccc(=O)n(CCO)c45)OC3=O)nc2N1` [Example 20, (S)-6-(5-(((2-(7-fluoro-1-(2-hydroxyethyl)-2-oxo-1,2-dihydroquinolin-8-yl)ethyl)amino)methyl)-2-oxooxazolidin-3-yl)-2H-pyrazino[2,3-b][1,4]oxazin-3(4H)-one], the MIC stood at 0.125 µg/mL (≈ 0.251 µM) in test [1]; 0.125 µg/mL (≈ 0.251 µM) in [2]; 0.5 µg/mL (≈ 1 µM) in test [3]; 0.5 µg/mL (≈ 1 µM) in test [4]; 0.03 µg/mL (≈ 0.0602 µM) in test [5]; 2 µg/mL (≈ 4.01 µM) in test [7]. Besides, the figures for the IC50 (on E. coli DNA gyrase; at E. coli topoisomerase IV; in test [8]) were 10.6 nM, 90 nM and greater than 300000 nM, respectively.
Turning to `Cn1c(=O)ccc2ccc(F)c(CCNC[C@H]3CN(c4ncc5c(n4)NC(=O)CO5)C(=O)O3)c21` [Example 16, (S)-2-(5-(((2-(7-fluoro-1-methyl-2-oxo-1,2-dihydroquinolin-8-yl)ethyl)amino)methyl)-2-oxooxazolidin-3-yl)-6H-pyrimido[5,4-b][1,4]oxazin-7(8H)-one], the MIC stood at 0.25 µg/mL (≈ 0.534 µM) in test [1]; 0.06 µg/mL (≈ 0.128 µM) in test [2]; 0.25 µg/mL (≈ 0.534 µM) in [3]; 1 µg/mL (≈ 2.13 µM) in test [4]; 0.06 µg/mL (≈ 0.128 µM) in [5]; 0.25 µg/mL (≈ 0.534 µM) in [7]. Further, the IC50 at E. coli DNA gyrase was found to be 41 nM; on E. coli topoisomerase IV, 112 nM; in test [8], 204000 nM.
With `Cn1c(=O)ccc2ccc(F)c(CCCNC[C@H]3CN(c4cnc5c(n4)NC(=O)CO5)C(=O)O3)c21` [Example 22, (S)-6-(5-(((3-(7-fluoro-1-methyl-2-oxo-1,2-dihydroquinolin-8-yl)propyl)amino)methyl)-2-oxooxazolidin-3-yl)-2H-pyrazino[2,3-b][1,4]oxazin-3(4H)-one], the MIC is 0.06 µg/mL (≈ 0.124 µM) in [1]; 0.03 µg/mL (≈ 0.0622 µM) in [2]; 0.06 µg/mL (≈ 0.124 µM) in test [3]; 0.25 µg/mL (≈ 0.518 µM) in test [4]; no more than 0.015 µg/mL in [5]; 0.015 µg/mL (≈ 0.0311 µM) in test [7]. Further, the IC50 against E. coli DNA gyrase was found to be 3.2 nM; on E. coli topoisomerase IV, 19 nM; in test [8], 128000 nM.
As to `O=C1COc2ccc(N3C[C@H](CNCCc4c(F)ccc5ccc(=O)n(CCO)c45)OC3=O)nc2N1` [Example 10, (S)-6-(5-(((2-(7-fluoro-1-(2-hydroxyethyl)-2-oxo-1,2-dihydroquinolin-8-yl)ethyl)amino)methyl)-2-oxooxazolidin-3-yl)-2H-pyrido[3,2-b][1,4]oxazin-3(4H)-one], the MIC came out at 0.06 µg/mL (≈ 0.121 µM) in test [1]; 0.03 µg/mL (≈ 0.0603 µM) in test [2]; 0.06 µg/mL (≈ 0.121 µM) in test [3]; 0.5 µg/mL (≈ 1.01 µM) in test [4]; 0.015 µg/mL (≈ 0.0302 µM) in [5]; 0.125 µg/mL (≈ 0.251 µM) in [7]. The IC50 against E. coli DNA gyrase stood at 5.9 nM; on E. coli topoisomerase IV it was 30 nM; in test [8] it was 71000 nM.
